Results reported in patent publication EP0623605A2, “Substituted piperazines as antiretroviral medicaments” (BAYER AG, priority 1993, dated 1994).

Molecular target: T1, HIV-Protease (Human immunodeficiency virus type 1 group M subtype B, UniProt P04585)
T1 construct: Gereinigte HIV-Protease wurde mit synthetischem Peptid
Assay: HIV-specific protease enzyme test (purified HIV protease incubated with synthetic Gag cleavage-site peptide, cleavage products analysed by RP-HPLC)
Format: biochemical
Conditions: for inhibition at 240 µg/mL: read-out: % Inhibition bei 240 µg/ml; for IC50: substance concentration causing 50% inhibition of protease activity, read-out: IC₅₀
Source text: Darüber hinaus wurde überraschend gefunden, daß die Verbindungen der allgemeinen Formel (I) eine außerordentlich starke Wirkung gegen Retroviren besitzen. Dies wird mit einem HIV-spezifischen Protease-Enzymtest belegt.
Die Ergebnisse der unten aufgeführten Beispiele wurden nach dem in den folgenden Literaturangaben [vgl. Hansen, J., Billich, S., Schulze, T., Sukrow, S. and Mölling, K. (1988), EMBO Journal, Vol, 7, No. 6, pp. 1785 - 1791] beschriebenen HIV-Testsystem ermittelt: Gereinigte HIV-Protease wurde mit synthetischem Peptid, das eine Schnittstelle im Gag-Precursor-Protein imitiert und eine in vivo-Spaltstelle der HIV-Protease darstellt, inkubiert Die entstandenen Spaltprodukte des synthetischen Peptids wurden über Reverse Phase High Performance Liquid Chromatography (RP-HPLC) analysiert. Die angegebenen IC₅₀-Werte beziehen sich auf die Substanzkonzentration, die unter den oben aufgeführten Testbedingungen eine 50%ige Hemmung der Protease-Aktivität bewirkt. Tabelle 1

SMILES	inhibition at 240 µg/mL [%]	IC50 [nM]
CC(CN1CCN(CCCC(c2ccc(F)cc2)c2ccc(F)cc2)CC1)Oc1ccc(F)cc1F (racemic) [Beispiel 10, 1-[4,4-Bis-(4-fluorphenyl)butyl]-4-[(R/S)-2-(2,4-difluorphenoxy)propyl]piperazin]	77	4800
Cc1cccc(OC(C)CN2CCN(CCCC(c3ccc(F)cc3)c3ccc(F)cc3)CC2)c1C (racemic) [Beispiel 37]	61	
CC(CN1CCN(CCCC(c2ccc(F)cc2)c2ccc(F)cc2)CC1)Oc1ccc(C(F)(F)F)cc1 (racemic) [Beispiel 40]	84	
CN(C)c1ccccc1OCCN1CCN(CCCC(c2ccc(F)cc2)c2ccc(F)cc2)CC1 [Beispiel 3, 1-[4,4-Bis-(4-fluorphenyl)butyl]-4-[2-(2-N,N-dimethylaminophenoxy)ethyl]piperazin]	76	
C[C@H]1CN(CCOc2ccc(F)cc2F)CCN1CCCC(c1ccc(F)cc1)c1ccc(F)cc1 [Beispiel 13, (S)-1-[4,4-Bis-(4-fluorphenyl)butyl]-2-methyl-4-[2-(2,4-difluorphenoxy)ethyl]piperazin]	91	480
C[C@H]1CN(CCCC(c2ccc(F)cc2)c2ccc(F)cc2)CCN1CCOc1ccc(F)cc1F [Beispiel 14, (S)-4-[4,4-Bis-(4-fluorphenyl)butyl]-2-methyl-1-[2-(2,4-difluorphenoxy)ethyl]piperazin]	99	1100
Fc1ccc(C(CCCN2CCN(CCOc3ccc(F)cc3F)CC2)c2ccc(F)cc2)cc1 [Beispiel 15]	92	400
Cc1cccc(OCCN2CCN(CCCC(c3ccc(F)cc3)c3ccc(F)cc3)CC2)c1C [Beispiel 16]	59	
Cc1cc(Cl)ccc1OCCN1CCN(CCCC(c2ccc(F)cc2)c2ccc(F)cc2)CC1 [Beispiel 17]	86	500
COc1cc(C)ccc1OCCN1CCN(CCCC(c2ccc(F)cc2)c2ccc(F)cc2)CC1 [Beispiel 22]	81	
Fc1ccc(C(CCCN2CCN(CCOc3cccc4c3CCCC4)CC2)c2ccc(F)cc2)cc1 [Beispiel 26]	97	1000
COc1cccc2c1OC(CN1CCN(CCCC(c3ccc(F)cc3)c3ccc(F)cc3)CC1)CC2 (centres unmarked) [Beispiel 27]	78	
Cc1ccc(N(C)C)cc1OCCN1CCN(CCCC(c2ccc(F)cc2)c2ccc(F)cc2)CC1 [Beispiel 30]	81	
Cc1ccc(N)cc1OCCN1CCN(CCCC(c2ccc(F)cc2)c2ccc(F)cc2)CC1 [Beispiel 32]	67	
COC(=O)c1ccc(OCCN2CCN(CCCC(c3ccc(F)cc3)c3ccc(F)cc3)CC2)c(N(C)C(C)=O)c1 [Beispiel 33]	56	
CCN(C)c1cc(CO)ccc1OCCN1CCN(CCCC(c2ccc(F)cc2)c2ccc(F)cc2)CC1 [Beispiel 34]	99	170
Cc1cc(Cl)ccc1OC(C)CN1CCN(CCCC(c2ccc(F)cc2)c2ccc(F)cc2)CC1 (centres unmarked) [Beispiel 39]	77	1000
CC(CN1CCN(CCCC(c2ccc(F)cc2)c2ccc(F)cc2)CC1)Oc1cccc2c1CCCC2 (centres unmarked) [Beispiel 41]	95	2100
COc1cccc2c1OC(CN1CCN(CCCC(c3ccc(F)cc3)c3ccc(F)cc3)C[C@@H]1C)CC2 (some centres unmarked) [Beispiel 44]	99	26000
